Test results: patent US20240166635A1, “AMINOHETEROARYL KINASE INHIBITORS” (Anrui Biomedical Technology (Guangzhou) Co.,Ltd., priority 2020, published 2024)
pIC50: −log10 of the molar value. Where two headings read alike, the source gives them in different places.

Tests used:
CDK9/CyclinT1 = CDK9/CyclinT1 (Homo sapiens (Human), UniProt P50750); assay: CDK9/CyclinT1 kinase inhibitory activity (Caliper mobility shift); type: biochemical; conditions: read-out: CDK9/Cyclin T1 IC50
CDK6/CyclinD1 = CDK6/CyclinD1 (Homo sapiens (Human), UniProt Q00534); assay: CDK6/CyclinD1 kinase inhibitory activity (Caliper mobility shift); type: biochemical; conditions: read-out: CDK6/Cyclin D1 IC50
Chain of CDK6/CyclinD1 (Q00534 whole entry): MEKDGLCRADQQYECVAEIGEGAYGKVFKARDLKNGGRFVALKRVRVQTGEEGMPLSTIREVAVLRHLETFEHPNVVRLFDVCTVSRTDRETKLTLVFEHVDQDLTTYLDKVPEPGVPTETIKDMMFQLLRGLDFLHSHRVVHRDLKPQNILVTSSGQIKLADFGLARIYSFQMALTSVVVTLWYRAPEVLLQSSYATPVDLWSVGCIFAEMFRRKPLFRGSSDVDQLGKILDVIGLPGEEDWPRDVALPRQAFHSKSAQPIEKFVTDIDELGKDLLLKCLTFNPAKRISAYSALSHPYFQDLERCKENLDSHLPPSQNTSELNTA
Chain of CDK6/CyclinD1 (P24385 whole entry partner): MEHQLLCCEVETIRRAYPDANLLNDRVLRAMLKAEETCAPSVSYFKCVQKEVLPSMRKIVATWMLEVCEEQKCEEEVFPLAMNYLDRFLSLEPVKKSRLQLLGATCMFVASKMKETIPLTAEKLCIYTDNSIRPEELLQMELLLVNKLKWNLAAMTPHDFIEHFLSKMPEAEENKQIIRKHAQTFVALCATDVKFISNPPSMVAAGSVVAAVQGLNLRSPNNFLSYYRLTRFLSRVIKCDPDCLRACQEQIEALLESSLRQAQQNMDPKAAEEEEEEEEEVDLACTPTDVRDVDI

CDK7/CyclinH/MAT1 = CDK7/CyclinH/MAT1 (Homo sapiens (Human), UniProt P50613); assay: CDK7/CyclinH/MAT1 kinase inhibitory activity (Caliper mobility shift); type: biochemical
Chain of CDK7/CyclinH/MAT1 (P50613 whole entry): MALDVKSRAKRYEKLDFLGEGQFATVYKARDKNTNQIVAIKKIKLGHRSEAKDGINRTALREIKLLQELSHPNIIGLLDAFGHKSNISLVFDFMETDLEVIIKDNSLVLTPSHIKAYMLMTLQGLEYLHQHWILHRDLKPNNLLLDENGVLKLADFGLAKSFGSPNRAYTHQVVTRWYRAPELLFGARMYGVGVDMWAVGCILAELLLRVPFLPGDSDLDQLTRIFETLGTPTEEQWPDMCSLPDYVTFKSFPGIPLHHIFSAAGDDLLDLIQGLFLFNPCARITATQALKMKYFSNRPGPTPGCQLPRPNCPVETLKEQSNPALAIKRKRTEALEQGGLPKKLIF
Chain of CDK7/CyclinH/MAT1 (P51946 whole entry partner): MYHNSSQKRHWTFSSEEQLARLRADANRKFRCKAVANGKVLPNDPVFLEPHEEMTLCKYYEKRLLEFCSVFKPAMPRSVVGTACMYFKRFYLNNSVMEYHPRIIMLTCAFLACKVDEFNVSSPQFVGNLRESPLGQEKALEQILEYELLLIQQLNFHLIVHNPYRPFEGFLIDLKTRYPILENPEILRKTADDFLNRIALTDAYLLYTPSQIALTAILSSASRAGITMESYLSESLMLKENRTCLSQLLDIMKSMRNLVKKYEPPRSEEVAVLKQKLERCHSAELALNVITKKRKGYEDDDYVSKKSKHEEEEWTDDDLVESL
Chain of CDK7/CyclinH/MAT1 (P51948 whole entry partner): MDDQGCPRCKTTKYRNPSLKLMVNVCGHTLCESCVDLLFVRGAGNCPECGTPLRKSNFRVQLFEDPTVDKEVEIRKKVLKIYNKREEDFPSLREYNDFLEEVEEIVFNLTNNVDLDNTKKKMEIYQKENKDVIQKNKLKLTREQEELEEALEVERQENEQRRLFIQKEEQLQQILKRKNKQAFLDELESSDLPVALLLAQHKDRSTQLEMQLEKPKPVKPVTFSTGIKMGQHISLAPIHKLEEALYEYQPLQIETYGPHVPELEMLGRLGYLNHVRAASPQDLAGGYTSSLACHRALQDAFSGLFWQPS

CDK1/CyclinB = CDK1/CyclinB (Homo sapiens (Human), UniProt P06493); assay: CDK1/CyclinB kinase inhibitory activity (Caliper mobility shift); type: biochemical; conditions: read-out: CDK1/Cyclin B1 IC50
Chain of CDK1/CyclinB (P06493 whole entry): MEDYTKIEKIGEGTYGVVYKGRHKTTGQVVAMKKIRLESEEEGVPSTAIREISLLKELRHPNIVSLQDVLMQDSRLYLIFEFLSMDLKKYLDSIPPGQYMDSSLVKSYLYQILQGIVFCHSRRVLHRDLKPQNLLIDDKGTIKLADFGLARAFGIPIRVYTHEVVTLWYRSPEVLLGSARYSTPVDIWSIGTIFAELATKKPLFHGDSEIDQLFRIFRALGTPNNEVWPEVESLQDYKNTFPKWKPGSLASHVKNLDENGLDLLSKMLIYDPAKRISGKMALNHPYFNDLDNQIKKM
Chain of CDK1/CyclinB (P14635 whole entry partner): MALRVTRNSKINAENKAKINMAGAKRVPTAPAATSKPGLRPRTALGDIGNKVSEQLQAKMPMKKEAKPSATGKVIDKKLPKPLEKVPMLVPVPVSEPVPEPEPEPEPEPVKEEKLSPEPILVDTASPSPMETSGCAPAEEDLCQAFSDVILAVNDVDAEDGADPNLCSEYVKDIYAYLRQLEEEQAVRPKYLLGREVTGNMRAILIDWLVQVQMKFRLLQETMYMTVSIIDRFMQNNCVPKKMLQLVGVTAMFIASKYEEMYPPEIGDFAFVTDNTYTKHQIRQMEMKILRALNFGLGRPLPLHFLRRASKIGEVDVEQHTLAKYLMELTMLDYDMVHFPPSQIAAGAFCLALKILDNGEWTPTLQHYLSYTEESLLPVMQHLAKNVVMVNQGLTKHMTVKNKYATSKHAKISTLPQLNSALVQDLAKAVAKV

CDK4/Cyclin D1 = CDK4/Cyclin D1 (Homo sapiens (Human), UniProt P11802); assay: CDK4/CyclinD1 kinase inhibitory activity (Caliper mobility shift); type: biochemical
Chain of CDK4/Cyclin D1 (P11802 whole entry): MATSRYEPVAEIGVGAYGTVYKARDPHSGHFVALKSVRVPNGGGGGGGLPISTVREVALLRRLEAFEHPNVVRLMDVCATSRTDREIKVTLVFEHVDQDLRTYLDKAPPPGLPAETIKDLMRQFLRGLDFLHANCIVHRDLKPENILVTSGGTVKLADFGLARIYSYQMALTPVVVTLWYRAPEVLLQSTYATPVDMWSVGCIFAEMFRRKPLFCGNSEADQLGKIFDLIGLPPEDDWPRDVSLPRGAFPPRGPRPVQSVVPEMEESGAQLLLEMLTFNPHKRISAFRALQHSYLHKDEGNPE
Chain of CDK4/Cyclin D1 (P24385 whole entry partner): as the sequence (P24385 whole entry partner) above

CDK2/CyclinE1 = CDK2/CyclinE1 (Homo sapiens (Human), UniProt P24941); assay: CDK2/CyclinE1 kinase inhibitory activity (Caliper mobility shift); type: biochemical; conditions: read-out: CDK2/Cyclin El IC50
ER+BC = conditions: cited from earlier work

Chain of CDK9/CyclinT1 (P50750 whole entry): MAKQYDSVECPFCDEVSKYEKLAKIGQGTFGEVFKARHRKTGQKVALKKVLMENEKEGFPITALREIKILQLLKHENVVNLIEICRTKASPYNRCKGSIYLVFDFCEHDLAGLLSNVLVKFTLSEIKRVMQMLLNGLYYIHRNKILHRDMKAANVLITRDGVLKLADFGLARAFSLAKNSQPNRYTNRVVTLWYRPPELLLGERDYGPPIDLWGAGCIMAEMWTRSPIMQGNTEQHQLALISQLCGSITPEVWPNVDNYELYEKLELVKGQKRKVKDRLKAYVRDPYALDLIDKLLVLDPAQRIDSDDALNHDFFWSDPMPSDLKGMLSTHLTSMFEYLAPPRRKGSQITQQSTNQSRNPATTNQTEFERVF
Chain of CDK9/CyclinT1 (O60563 whole entry partner): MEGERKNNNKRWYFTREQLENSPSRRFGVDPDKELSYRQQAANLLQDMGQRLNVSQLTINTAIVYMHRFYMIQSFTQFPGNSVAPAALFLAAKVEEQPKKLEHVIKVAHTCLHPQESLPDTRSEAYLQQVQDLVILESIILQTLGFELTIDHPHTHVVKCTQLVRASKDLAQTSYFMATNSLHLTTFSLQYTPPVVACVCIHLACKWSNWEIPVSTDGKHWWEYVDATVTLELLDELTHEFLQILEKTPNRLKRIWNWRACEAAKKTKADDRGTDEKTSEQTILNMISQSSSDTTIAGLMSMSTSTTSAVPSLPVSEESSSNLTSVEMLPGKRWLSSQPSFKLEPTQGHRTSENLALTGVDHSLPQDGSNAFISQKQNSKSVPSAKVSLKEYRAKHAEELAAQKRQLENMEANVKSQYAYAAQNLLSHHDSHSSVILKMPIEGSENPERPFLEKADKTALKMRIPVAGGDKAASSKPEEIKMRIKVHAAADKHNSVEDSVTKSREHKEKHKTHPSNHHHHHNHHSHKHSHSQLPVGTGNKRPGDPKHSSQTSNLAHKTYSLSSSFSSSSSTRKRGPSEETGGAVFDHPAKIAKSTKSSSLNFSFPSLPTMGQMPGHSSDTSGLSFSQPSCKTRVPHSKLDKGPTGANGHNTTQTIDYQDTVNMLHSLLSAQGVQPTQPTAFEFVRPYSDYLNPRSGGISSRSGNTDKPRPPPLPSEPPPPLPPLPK

Molecule	pIC50 (CDK9/CyclinT1)	pIC50 (CDK6/CyclinD1)	pIC50 (CDK7/CyclinH/MAT1)	pIC50 (CDK1/CyclinB)	pIC50 (CDK4/Cyclin D1)	pIC50 (CDK2/CyclinE1)	median PFS (ER+BC; CCNE1 high)	median PFS (ER+BC; CCNE1 low)
[2H]C([2H])([2H])NS(=O)(=O)c1ccc(Nc2ncc(CC)c(OC3COCC3(C)O)n2)cc1 (single isomer, unassigned) [Example 150a]	6.00 to 7.00	6.00 to 7.00	6.00 to 7.00	7.00 to 8.00	6.00 to 7.00	> 8.00		
Cn1cc(S(=O)(=O)N2CCC(Nc3ncc(C#N)c(O[C@@H]4CCC(F)(F)C[C@]4(C)O)n3)CC2)cn1 (relative stereo) [Example 7a, cis-4-((4,4-difluoro-2-hydroxy-2-methylcyclohexyl)oxy)-2-((1-((1-methyl-1H-pyrazol-4-yl)sulfonyl)piperidin-4-yl)amino)pyrimidine-5-carbonitrile]	6.00 to 7.00	> 8.00	7.00 to 8.00	> 8.00	> 8.00	> 8.00		
N#Cc1cnc(Nc2ccc(S(N)(=O)=O)cc2)nc1-c1cccc(C2CC2)c1 [Example 96]	6.00 to 7.00	≤ 6.00	≤ 6.00	6.00 to 7.00	7.00 to 8.00	7.00 to 8.00		
N#Cc1cnc(Nc2ccc(S(N)(=O)=O)cc2)nc1OC1CCCC1O (single isomer, unassigned) [Example 20a]	6.00 to 7.00	6.00 to 7.00	≤ 6.00	6.00 to 7.00	6.00 to 7.00	> 8.00		
Palbociclib plus fulvestrant [Palbociclib+fulvestrant]							7.6 month	14.1 month
Cc1cnc(Nc2ccc(S(=O)(=O)NC(C)C)cc2)nc1OC1CCCC1O (single isomer, unassigned) [Example 147a]	6.00 to 7.00	6.00 to 7.00	6.00 to 7.00	7.00 to 8.00	≤ 6.00	> 8.00		
CC1(O)CCCC1Oc1nc(NC2CCN(S(=O)(=O)CC(F)(F)F)CC2)ncc1C#N (single isomer, unassigned) [Example 43a]	6.00 to 7.00	7.00 to 8.00	6.00 to 7.00	7.00 to 8.00	> 8.00	> 8.00		
N#Cc1cnc(Nc2ccc(S(=O)(=O)NC3CCC3)cc2)nc1OC1CCC[C@H]1O (mixture of isomers) [Example 25]	6.00 to 7.00	7.00 to 8.00	≤ 6.00	7.00 to 8.00	6.00 to 7.00	> 8.00		
CNS(=O)(=O)N1CCC(Nc2ncc(C#N)c(OCC3(C)CCCC3)n2)CC1 [Example 55]	6.00 to 7.00	7.00 to 8.00	≤ 6.00	7.00 to 8.00	> 8.00	> 8.00		
Cn1cc(S(=O)(=O)N2CCC(Nc3ncc(C#N)c(OCC4(C)CC(F)(F)C4)n3)CC2)cn1 [Example 61]	6.00 to 7.00	7.00 to 8.00	6.00 to 7.00	7.00 to 8.00	> 8.00	> 8.00		
CNS(=O)(=O)c1ccc(Nc2ncc(C#N)c(OC3CCC[C@H]3O)n2)cc1 (mixture of isomers) [Example 26]	≤ 6.00	6.00 to 7.00	≤ 6.00	6.00 to 7.00	6.00 to 7.00	> 8.00		
[2H]C([2H])([2H])NS(=O)(=O)c1ccc(Nc2ncc(C(F)(F)F)c(O[C@H]3CCOC[C@H]3O)n2)c(F)c1 (single isomer, unassigned) [Example 101a, cis-3-fluoro-4-((4-((3-hydroxytetrahydro-2H-pyran-4-yl)oxy)-5-(trifluoromethyl)pyrimidin-2-yl)amino)-N-(methyl-d3)benzenesulfonamide]	≤ 6.00	≤ 6.00	≤ 6.00	6.00 to 7.00	≤ 6.00	> 8.00		
[2H]C([2H])([2H])NS(=O)(=O)c1ccc(Nc2ncc(Br)c(OC3CCCC3O)n2)cc1 (single isomer, unassigned) [Example 143a]	6.00 to 7.00	7.00 to 8.00	6.00 to 7.00	7.00 to 8.00	6.00 to 7.00	> 8.00		
CC1(O)CCCC1Oc1nc(NC2CCN(S(=O)(=O)CC3CCOC3)CC2)ncc1C#N (single isomer, unassigned) [Example 40a]	6.00 to 7.00	> 8.00	6.00 to 7.00	7.00 to 8.00	> 8.00	> 8.00		
[2H]C([2H])([2H])NS(=O)(=O)c1ccc(Nc2ncc(CC)c(OC3CCOCC3O)n2)cc1 (single isomer, unassigned) [Example 151a]	≤ 6.00	6.00 to 7.00	6.00 to 7.00	6.00 to 7.00	≤ 6.00	> 8.00		
CS(=O)(=O)N1CCC(Nc2ncc(Br)c(OC3CCCCCC3O)n2)CC1 (single isomer, unassigned) [Example 145b]	6.00 to 7.00	7.00 to 8.00	7.00 to 8.00	7.00 to 8.00	7.00 to 8.00	> 8.00		

Continued, in another order:

pIC50 (CDK9/CyclinT1)	pIC50 (CDK6/CyclinD1)	pIC50 (CDK7/CyclinH/MAT1)	pIC50 (CDK1/CyclinB)	pIC50 (CDK4/Cyclin D1)	pIC50 (CDK2/CyclinE1)	Molecule	median PFS (ER+BC; CCNE1 high)	median PFS (ER+BC; CCNE1 low)
6.00 to 7.00	7.00 to 8.00	6.00 to 7.00	7.00 to 8.00	6.00 to 7.00	> 8.00	CNS(=O)(=O)c1ccc(Nc2ncc(Br)c(OC3CCCC3O)n2)cc1 (single isomer, unassigned) [Example 142a]		
7.00 to 8.00	7.00 to 8.00	6.00 to 7.00	> 8.00	7.00 to 8.00	> 8.00	CC1(O)CCCC1Oc1nc(Nc2ccc(S(N)(=O)=O)cc2)ncc1C#N (single isomer, unassigned) [Example 23a]		
6.00 to 7.00	7.00 to 8.00	7.00 to 8.00	7.00 to 8.00	> 8.00	> 8.00	CC1(O)CCCC1Oc1nc(NC2CCN(S(=O)(=O)CF)CC2)ncc1C#N (single isomer, unassigned) [Example 37a]		
7.00 to 8.00	6.00 to 7.00	6.00 to 7.00	7.00 to 8.00	6.00 to 7.00	> 8.00	NS(=O)(=O)c1ccc(Nc2ncc(C(F)(F)F)c(OC3CCOCC3O)n2)cc1 (single isomer, unassigned) [Example 114a]		
6.00 to 7.00	7.00 to 8.00	6.00 to 7.00	7.00 to 8.00	> 8.00	> 8.00	Cn1cc(S(=O)(=O)N2CCC(Nc3ncc(C#N)c(OC4CC5(CCC5)C4)n3)CC2)cn1 [Example 59]		
6.00 to 7.00	7.00 to 8.00	6.00 to 7.00	7.00 to 8.00	> 8.00	> 8.00	CC1(COc2nc(NC3CCN(S(C)(=O)=O)CC3)ncc2C#N)CCC1 [Example 53]		
6.00 to 7.00	> 8.00	6.00 to 7.00	7.00 to 8.00	7.00 to 8.00	> 8.00	CC(C)CS(=O)(=O)N1CCC(Nc2ncc(C#N)c(OC3CCCC3(C)O)n2)CC1 (single isomer, unassigned) [Example 39a]		
6.00 to 7.00	6.00 to 7.00	6.00 to 7.00	7.00 to 8.00	6.00 to 7.00	> 8.00	[2H]C([2H])([2H])NS(=O)(=O)c1ccc(Nc2ncc(CC)c(OC3CCCC3O)n2)cc1 (single isomer, unassigned) [Example 149a]		
6.00 to 7.00	> 8.00	7.00 to 8.00	> 8.00	> 8.00	> 8.00	Cn1cc(S(=O)(=O)N2CCC(Nc3ncc(C#N)c(OC4CCCC4(C)O)n3)CC2)cn1 (single isomer, unassigned) [Example 48a]		
6.00 to 7.00	7.00 to 8.00	7.00 to 8.00	> 8.00	7.00 to 8.00	> 8.00	CNS(=O)(=O)c1ccc(Nc2ncc(C#N)c(OC3CCCC3(C)O)n2)cc1 (single isomer, unassigned) [Example 34a]		
7.00 to 8.00	7.00 to 8.00	≤ 6.00	7.00 to 8.00	7.00 to 8.00	> 8.00	N#Cc1cnc(Nc2ccc(S(N)(=O)=O)cc2)nc1-c1cccc(O)c1 [Example 98]		
7.00 to 8.00	7.00 to 8.00	≤ 6.00	7.00 to 8.00	7.00 to 8.00	> 8.00	N#Cc1cnc(Nc2ccc(S(N)(=O)=O)cc2)nc1N1CCCCCC1 [Example 68]		
7.00 to 8.00	7.00 to 8.00	6.00 to 7.00	7.00 to 8.00	7.00 to 8.00	> 8.00	N#Cc1cnc(Nc2ccc(S(N)(=O)=O)cc2)nc1OC1CCCC1 [Example 10]		
